According to patent publication US8946283B2, “Composition for preventing or treating obesity, dyslipidemia, fatty liver or diabetes containing indole-3-carbinol derivative as active ingredient” (Industry-Academic Cooperation Foundation, Yonsei University, priority 2011, dated 2015):

Tests used:
3T3-L1 cells = assay: Inhibition of adipocyte differentiation, Oil Red O staining of triglyceride; type: cell-based, mouse; details: for differentiation of the preadipocytes 3T3L1: 0.1, 1, 10, 50 and 100 μM, 14 days, vs DMSO control; for triglyceride accumulation in cells: 3T3-L1 cells, FIGS. 1-3
Method: Mouse adipocyte cell line (3T3-L1) was used to investigate the effect of various indole-3-carbinol derivatives on differentiation and growth of adipocytes. The preadipocytes, 3T3-L1 cells, were seeded on a 12-well plate and cultured to confluency using Dulbecco's modified Eagle's medium (DMEM) containing 1% penicillin-streptomycin, 1% nonessential amino acid and 10% fatal bovine serum (FBS), in a 5% CO2 incubator at 37° C. The 3T3-L1 cells grown to confluency were cultured for 2 days in MDI medium containing 0.5 mM isobutylmethylxanthine, 1 μM dexamethasone and 1 μg/mL insulin to differentiate them into adipocytes. Then, the cells were further cultivated in DMEM containing 1 μg/mL insulin to differentiate them into mature adipocytes. The cells were further cultured for 10 more days while replacing DMEM every other day to obtain fully differentiated adipocytes.
From the first day when MDI was added to the 3T3-L1 cells, 16 indole-3-carbinol derivative compounds were treated at concentrations of 0.1, 1, 10, 50 and 100 μM with 2-day intervals. The structure and molecular weight of the 16 indole-3-carbinol derivatives (B518, B521, B525, B528, B538, B540, B542, B544, B545, B546, B547, B549, B551, B556, B558 and B561) are described in Table 1. The derivative compounds were used after being dissolved in DMSO. Only DMSO was added to the negative control group.
After culturing for a total of 14 days, the medium was removed when the differentiation was completed and lipid droplets in the differentiated adipocytes were stained. For this, the cells were washed twice with phosphate buffered saline (PBS), fixed in 10% buffered neutral formalin (BNF) for 1 hour, washed once again with PBS, stained for 1 hour by adding 1 mL of Oil Red O dye, which specifically stains fat red, on the 12-well plate, and washed twice with distilled water. In order to measure the level of triglyceride contained in the differentiated 3T3-L1 cells, the stained lipid droplets were dissolved in 1 mL of isobutanol and optical density (OD) value was measured at 600 nm.

[1] = Biochemical analysis of blood (plasma lipids) of mice fed high-fat test diet; type: in vivo, C57BL/6J mice; details: 0.05% in high-fat diet, 10 weeks
Method: (§1) The obesity-inducing control diet used in the test was high-fat diet (HFD: 40% fat calorie, 17 g lard+3% corn oil/100 g diet). Diets supplemented with indole-3-carbinol derivatives (B525 and B528) had the same composition as HFD, except that each derivative was included at 0.05% (see Table 2). The diabetic drug metformin was added at 0.1% or the hyperlipidemic drug atorvastatin was added at 0.01% to HFD as controls. The normal diet group (Chow) was fed with commercially available rodent chow.
(§2) 56 5-week-old male C57BL/6J mice (Orient, Korea) were accustomed to the laboratory environment for 1 week while feeding solid feed. Then, they were randomly divided into normal diet, high-fat diet and test groups (n=8/group) and bred for a total of 10 weeks. The diet was given between 10 and 11 a.m. every day together with water. Food intake was measured every day and body weight was measured once a week. In order to avoid transient body weight increase after feed intake, body weight was measured 2 hours after removing the feed. After fasting the test animal for at least 12 hours and anesthetizing with diethyl ether, blood, liver and visceral fat (epididymal fat, perirenal fat, mesenteric fat and retroperitoneal fat) were taken and weighed after washing with 0.1 M PBS (pH 7.4). Blood taken from the abdominal aorta was centrifuged at 1000×g for 15 minutes to separate the plasma.
After 10 weeks of breeding, total cholesterol, triglyceride and glucose levels in the plasma and lipid level in the liver tissue were measured as follows. Total cholesterol, triglyceride and free fatty acid levels in the plasma were measured twice for each using a commercially available kit (Bio Clinical System).

[2] = Fasting blood sugar and oral glucose tolerance test in mice fed high-fat test diet; type: in vivo, C57BL/6J mice; details: for reduction of fasting blood sugar level as compared to HFD: 0.05% in high-fat diet, 8 weeks
Method: as §1, §2
On week 8 after feeding the test diet, oral glucose tolerance test was performed for all the groups. After fasting the mouse for 16 hours, glucose (2 g glucose/10 mL distilled water/kg body weight) was orally administered. Before and 15, 30, 60 and 120 minutes after the oral administration, the tail end was cut by about […] and blood was taken. Glucose level was measured using a glucose meter.

[3] = Liver weight and lipid level in liver tissue of mice fed high-fat test diet; type: in vivo, C57BL/6J mice; details: 0.05% in high-fat diet, 10 weeks
Method: as §1, §2
Lipids were extracted from the liver tissue according to Folch et al.'s method Folch J et al., J Biol. Chem. 226: 497-509 (1957)). After adding 1 mL of distilled water to 0.25 g of liver tissue, the liver tissue was homogenized using a Polytron homogenizer (IKA-Werke GmbH & Co., Ultra-Turrax, Staufen, Germany). After adding 5 mL of chloroform:methanol solution (2:1, v/v) to the homogenate and mixing well, the mixture was centrifuged at 1000×g for 10 minutes. After adding 2 mL of chloroform:methanol solution (2:1, v/v) again to the supernatant, the same procedure was repeated to completely separate the lipid components of the liver. After adding 3 mL of chloroform:methanol:0.05% CaCl2 (3:48:47, v/v/v) solution to the remaining pellets and mixing well for 1 minute, followed by centrifugation at 1000×g for 10 minutes, the resulting pellets were completely dried with nitrogen gas. The dried lipids were dissolved in 1 mL of methanol and then analyzed.
The same kit (Bio Clinical System) as that used for the plasma analysis was used to measure the triglyceride and cholesterol levels of the liver tissue.

[4] = Body weight gain and visceral fat weight of mice fed high-fat test diet; type: in vivo, C57BL/6J mice; details: 0.05% in high-fat diet, 10 weeks
Method: as §1, §2

Compound | differentiation of the preadipocytes 3T3L1 (3T3-L1 cells) | triglyceride accumulation in cells (3T3-L1 cells) | reduction of arteriosclerotic index in blood plasma as compared to HFD [1] [%] | reduction of total cholesterol level in blood plasma as compared to HFD [1] [%] | reduction of triglyceride level in blood plasma as compared to HFD [1] [%] | reduction of fasting blood sugar level as compared to HFD [2] [%] | effect on oral glucose tolerance compared to controls metformin and atorvastatin ([2]; OGTT, week 8) | appearance of liver tissue as compared to HFD [3] | decrease of cholesterol level in liver tissue as compared to HFD [3] [%] | decrease of liver weight as compared to HFD [3] [%] | decrease of triglyceride level in liver tissue as compared to HFD [3] [%] | decrease of body weight gain as compared to HFD [4] [%] | reduction of total visceral fat weight as compared to HFD [4] [%] | weight of epididymal fat, perirenal fat, mesenteric fat and retroperitoneal fat as compared to HFD [4] | blood glucose level after oral glucose as compared to HFD ([2]; OGTT, 15, 30, 60 and 120 minutes, week 8) | change of blood glucose level after oral glucose as compared to HFD ([2]; OGTT, after 60 minutes, week 8) [%] | area under the curve (AUC) of the blood glucose level as compared to HFD ([2]; OGTT, week 8)
C=CCN1C(=O)C(O)(c2c(C)[nH]c3ccccc23)c2cc(Br)ccc21 (stereo not drawn) [B525, 1′-Allyl-5′-bromo-3′-hydroxy-2-methyl-1′,3′-dihydro-1H,2′H-3,3′-biindol-2′-one] | reduced the differentiation of the preadipocytes 3T3L1 in a concentration-dependent manner | effectively reduce triglyceride accumulation in cells | 30 | 18 | 32 | 37 | excellent effect of improving oral glucose tolerance, better than the controls metformin and atorvastatin | smaller and darker liver tissue | 22 | 26 | 18 | 21 | 20 | significantly reduced |  |  | 
CCN1C(=O)C(O)(c2c(C)[nH]c3ccccc23)c2cc(Br)ccc21 (stereo not drawn) [B528, 5′-Bromo-1′-ethyl-3′-hydroxy-2-methyl-1′,3′-dihydro-1H,2′H-3,3′-biindol-2′-one] | reduced the differentiation of the preadipocytes 3T3L1 in a concentration-dependent manner | effectively reduce triglyceride accumulation in cells | 35 | 21 | 38 | 39 | excellent effect of improving oral glucose tolerance, better than the controls metformin and atorvastatin | smaller and darker liver tissue | 28 | 31 | 34 | 30 | 26 | significantly reduced | decreased blood glucose level at all times | −29 | decreased significantly
COc1ccccc1OCCN1C(=O)C(O)(c2c(C)[nH]c3ccccc23)c2ccccc21 (stereo not drawn) [B558, 3′-Hydroxy-1′-[2-(2-methoxyphenoxy)ethyl]-2-methyl-1′,3′-dihydro-1H,2′H-3,3′-biindol-2′-one] | reduced the differentiation of the preadipocytes 3T3L1 in a concentration-dependent manner |  |  |  |  |  |  |  |  |  |  |  |  |  |  |  | 
CC(=O)c1[nH]c2ccccc2c1C(=O)O [B561, 2-Acetyl-1H-indole-3-carboxylic acid] | reduced the differentiation of the preadipocytes 3T3L1 in a concentration-dependent manner |  |  |  |  |  |  |  |  |  |  |  |  |  |  |  | 
